One data set deals with KIF18A (Homo sapiens (Human), UniProt Q8NI77). As to the kind of experiment: KIF18A Biochemical Assay (ATPase, ADP-Glo). In general terms: In ADP-Glo the light output rises with the ADP produced.
The next data set concerns OVCAR-3 cells. Description: In vitro anti-proliferative activity assay in cancer cell line OVCAR-3 (CellTiter-Glo, 4- or 7-day). In kind it is cell-based. Conditions: Homo sapiens, read-out: OVCAR-3 cellular antiproliferation assay IC50. (In ATP-based viability assays light output follows the ATP content of the culture.)
Data set [1] in a line: Caco-2 permeation assay, bidirectional permeability. Particulars: human, Caco-2, pH 7.4, 5 μM, Papp(B-A)/Papp(A-B). In kind it is in vitro ADME. The procedure:
1. Caco-2 Permeation Assay: Evaluation of the Bidirectional Permeabilities of Compounds.
Samples were analyzed through LC/MS/MS for estimating the apparent permeability coefficients (Papp) of compounds across Caco-2 cell monolayers. Caco-2 cells (American Type Culture Collection) were incubated and seeded onto HTS Transwell-96 Well Permeable Supports (Corning Corporation) for 14 days using a cell medium consisting of Dulbecco's Modified Eagle's Medium (DMEM) with high glucose and L-glutamine supplemented with 10% FBS, 1× penicillin-streptomycin mixture and 1×non-essential amino acids (NEAA). Cell monolayer integrity was measured using an automated tissue resistance measuring system (World Precision Instruments). Stock solutions of compounds and control compounds in DMSO were diluted with HBSS (10 mM HEPES, pH 7.4) to reach a final concentration of 5 μM with a final concentration of DMSO <0.1%. HBSS was then removed after 30 minutes of preincubation, and 75 μL of test compound was added to the apical compartment of the Transwell insert. The basolateral compartment was filled with 235 μL of HBSS (10 mM HEPES, pH 7.4) containing 2% BSA. Rate of drug transport in the basolateral to apical direction was obtained by adding 235 μL of test compound to the receiver plate wells (basolateral compartment) and filling with 75 μL of HBSS (10 mM HEPES, pH 7.4) containing 2% BSA. Time 0 samples were prepared by transferring 25 μL of 5 μM working solution to wells of the 96-deepwell plate containing 25 μL HBSS (10 mM HEPES and 2% BSA, pH 7.4), followed by the addition 200 μL of cold methanol containing appropriate internal standards (100 nM alprazolam, 200 nM labetalol, 200 nM caffeine and 200 nM diclofenac). After incubating at 37° C. for 2 h, 25 μL samples from donor sides (apical compartment) were transferred to a 96-well plate containing 25 μL HBSS (10 mM HEPES and 2% BSA, pH 7.4). 25 μL samples from receiver sides (basolateral compartment) were removed and transferred to a new plate containing 25 μL HBSS (10 mM HEPES, pH 7.4). 200 μL of cold methanol containing internal standards (100 nM alprazolam, 200 nM labetalol, 200 nM caffeine and 200 nM diclofenac) was added to terminate the reaction. Samples were vortexed for 5 minutes and then centrifuged at 3,220 g for 40 minutes. An aliquot of 100 μL of the supernatant is mixed with 100 μL of ultra-pure water for LC-MS/MS analysis. All incubations are performed in duplicate. Solutions were discarded from the transwell plate. 100 μL Lucifer Yellow solution (100 μM in HBSS) was added to each well of transwell insert and 300 μL of HBSS to each well of receiver. After incubating at 37° C. for 30 minutes, 80 μL was aliquotted from each well of apical and basolateral sides to a solid black plate. The plate was then read with Tecan Infinite™ M 200 (Excitation/Emission wavelength […]).
All calculations were carried out using Microsoft Excel. Peak areas were determined from extracted ion chromatograms. The leakage of Lucifer Yellow, in unit of percentage (%), can be calculated using the following equation: […]
LY leakage of <1% is acceptable to indicate the well-qualified Caco-2 monolayers. The apparent permeability coefficient (Papp), in units of centimeter per second, can be calculated for Caco-2 drug transport assays using the following equation: […]
Where VA is the volume (in mL) in the receiver well (0.235 mL for Ap→Bl flux and 0.075 mL for Bl→Ap flux), Area is the surface area of the membrane (0.143 cm^2 for HTS Transwell-96 Well Permeable Supports), and time is the total transport time in seconds. The efflux ratio can be determined using the following equation: […]
Where Papp (B-A) indicates the apparent permeability coefficient in basolateral to apical direction, and Papp (A-B) indicates the apparent permeability coefficient in apical to basolateral direction.
The recovery can be determined using the following equation: […]
(Passage across Caco-2 layers is used to estimate intestinal permeability.)

Read-outs that look alike come from different tables or passages of the source.

Sequence of KIF18A (Q8NI77 1-367): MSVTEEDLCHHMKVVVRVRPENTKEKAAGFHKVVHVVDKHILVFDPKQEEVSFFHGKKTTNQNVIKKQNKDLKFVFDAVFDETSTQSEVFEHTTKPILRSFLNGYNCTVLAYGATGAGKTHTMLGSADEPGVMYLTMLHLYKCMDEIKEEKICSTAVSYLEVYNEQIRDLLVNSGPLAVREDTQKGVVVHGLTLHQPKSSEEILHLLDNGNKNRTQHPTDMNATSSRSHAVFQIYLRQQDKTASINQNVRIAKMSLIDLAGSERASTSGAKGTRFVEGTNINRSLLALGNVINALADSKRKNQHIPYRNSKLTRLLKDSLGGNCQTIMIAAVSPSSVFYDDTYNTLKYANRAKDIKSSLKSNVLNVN
Sequence of KIF18A (P02550 whole entry partner): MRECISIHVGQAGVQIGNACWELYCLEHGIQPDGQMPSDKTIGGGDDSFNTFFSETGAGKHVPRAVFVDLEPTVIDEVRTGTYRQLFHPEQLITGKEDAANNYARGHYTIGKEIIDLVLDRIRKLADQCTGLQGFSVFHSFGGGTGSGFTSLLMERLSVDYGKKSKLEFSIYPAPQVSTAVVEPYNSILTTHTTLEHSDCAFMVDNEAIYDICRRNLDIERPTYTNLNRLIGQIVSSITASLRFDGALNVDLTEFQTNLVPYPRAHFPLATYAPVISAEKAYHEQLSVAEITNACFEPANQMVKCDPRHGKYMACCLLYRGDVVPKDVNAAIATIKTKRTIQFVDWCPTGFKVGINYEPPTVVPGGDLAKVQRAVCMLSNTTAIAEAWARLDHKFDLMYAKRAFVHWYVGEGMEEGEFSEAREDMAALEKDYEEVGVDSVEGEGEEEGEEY
Sequence of KIF18A (P02554 whole entry partner): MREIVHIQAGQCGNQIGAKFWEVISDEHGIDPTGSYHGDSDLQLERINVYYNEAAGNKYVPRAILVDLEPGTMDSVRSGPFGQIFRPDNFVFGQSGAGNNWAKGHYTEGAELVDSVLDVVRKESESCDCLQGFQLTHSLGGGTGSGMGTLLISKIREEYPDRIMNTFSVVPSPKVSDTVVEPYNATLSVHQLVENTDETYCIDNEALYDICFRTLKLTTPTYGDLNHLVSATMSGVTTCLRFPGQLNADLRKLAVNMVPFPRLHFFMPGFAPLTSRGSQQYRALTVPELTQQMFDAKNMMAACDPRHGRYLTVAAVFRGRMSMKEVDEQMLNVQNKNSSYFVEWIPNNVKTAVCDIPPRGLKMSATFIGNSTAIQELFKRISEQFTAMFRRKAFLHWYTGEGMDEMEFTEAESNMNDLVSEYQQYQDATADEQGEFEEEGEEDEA

On to `COC[C@@]12CCN(c3cc(NS(=O)(=O)CCO)ccc3C(=O)Nc3cc(C)nc(N4CCC(F)(F)CC4)n3)C[C@@H]1C2` (single isomer, unassigned) [Example 49b], for which the IC50 was less than 100 nM against KIF18A and less than 100 nM with OVCAR-3 cells (OVCAR-3, 168 h, 7-day assay). Further, the efflux ratio – broadly, a quotient of directional permeabilities that is used to spot active efflux – at 2 h, 5 μM in data set [1] was less than 10.
For the compound `Cc1ccc(NC(=O)c2ccc(NS(=O)(=O)CCO)cc2N2CC[Si](C)(C)CC2)nc1N1CCOCC1` [Example 2, 2-(4,4-dimethyl-1,4-azasilinan-1-yl)-4-((2-hydroxyethyl)sulfonamido)-N-(5-methyl-6-morpholinopyridin-2-yl)benzamide], the IC50 was less than 100 nM at KIF18A and less than 100 nM in the data set on OVCAR-3 cells (OVCAR-3, 96 h, 4-day assay). Besides, the efflux ratio at 2 h, 5 μM in data set [1] was less than 10.
For `CC(C)(C)NS(=O)(=O)c1cccc(NC(=O)c2ccc(NS(=O)(=O)C(C)(C)C)cc2N2CC[Si](C)(C)CC2)c1` [Example 4, N-(3-(N-(tert-butyl)sulfamoyl)phenyl)-2-(4,4-dimethyl-1,4-azasilinan-1-yl)-4-((1,1-dimethylethyl)sulfonamido)benzamide], the IC50 at KIF18A was 500 to 1000 nM; with OVCAR-3 cells (OVCAR-3, 96 h, 4-day assay) it was 100 to 500 nM. Also, the efflux ratio at 2 h, 5 μM in data set [1] was less than 10.
The corresponding values for `Cc1cc(NC(=O)c2ccc(NS(=O)(=O)CCO)cc2N2CC[Si](C)(C)CC2)nc(N2CCOCC2)c1` [Example 5, 2-(4,4-dimethyl-1,4-azasilinan-1-yl)-4-((2-hydroxyethyl)sulfonamido)-N-(4-methyl-6-morpholinopyridin-2-yl)benzamide] are less than 100 nM, less than 100 nM and less than 10.
For `C[Si]1(C)CCN(c2cc(NS(=O)(=O)CCO)ccc2C(=O)Nc2cccc(N3CCC(F)(F)CC3)c2)CC1` [Example 6, N-(3-(4,4-difluoropiperidin-1-yl)phenyl)-2-(4,4-dimethyl-1,4-azasilinan-1-yl)-4-((2-hydroxyethyl)sulfonamido)benzamide], in that order: less than 100 nM, less than 100 nM and less than 10.
The corresponding values for `C[Si]1(C)CCN(c2cc(NS(=O)(=O)CCO)ccc2C(=O)Nc2ccnc(N3CCC(F)(F)CC3)c2)CC1` [Example 7, N-(2-(4,4-difluoropiperidin-1-yl)pyridin-4-yl)-2-(4,4-dimethyl-1,4-azasilinan-1-yl)-4-((2-hydroxyethyl)sulfonamido)benzamide] are less than 100 nM, less than 100 nM and not below 10.
In the case of `Cc1cc(NC(=O)c2ccc(NS(=O)(=O)CCO)cc2N2CC[Si](C)(C)CC2)nc(N2CCC(F)(F)CC2)c1` [Example 8, N-(6-(4,4-difluoropiperidin-1-yl)-4-methylpyridin-2-yl)-2-(4,4-dimethyl-1,4-azasilinan-1-yl)-4-((2-hydroxyethyl)sulfonamido)benzamide], the IC50 is 100 to 500 nM against KIF18A and less than 100 nM in the data set on OVCAR-3 cells (OVCAR-3, 96 h, 4-day assay). Also, in data set [1], the efflux ratio at 2 h, 5 μM was less than 10.
For `C[Si]1(C)CCN(c2cc(NS(=O)(=O)CCO)ccc2C(=O)Nc2ccnc(OCCC(F)(F)F)n2)CC1` [Example 10], in that order: less than 100 nM, 500 to 1000 nM and not below 10.
The corresponding values for `CC1CN(c2nccc(NC(=O)c3ccc(NS(=O)(=O)CCO)cc3N3CC[Si](C)(C)CC3)n2)CCO1` (stereo not drawn) [Example 11] are less than 100 nM, less than 100 nM and less than 10.
The corresponding values for `O=C(Nc1ccnc(N2CCC(F)(F)CC2)n1)c1cc2cnn(CCO)c2cc1N1CCC2(CC1)CC2` [Example 12] are 500 to 1000 nM, more than 1000 nM and less than 10.
Consider `C[Si]1(C)CCN(c2cc(NS(=O)(=O)CCO)ccc2C(=O)Nc2cccc(OCCC(F)(F)F)n2)CC1` [Example 16], for which the IC50 at KIF18A is less than 100 nM; in the data set with OVCAR-3 cells (OVCAR-3, 96 h, 4-day assay) it was less than 100 nM. The efflux ratio at 2 h, 5 μM in data set [1] is less than 10.
Regarding `C[C@H]1CN(c2cccc(NC(=O)c3ccc(NS(=O)(=O)CCO)cc3N3CC[Si](C)(C)CC3)n2)CCO1` [Example 17], the IC50 against KIF18A was less than 100 nM; in the data set on OVCAR-3 cells (OVCAR-3, 96 h, 4-day assay), less than 100 nM. Moreover, in data set [1], the efflux ratio at 2 h, 5 μM was not below 10.
In the case of `Cc1cc(NC(=O)c2ccc(NS(C)(=O)=O)cc2N2CC[Si](C)(C)CC2)nc(N2CC(F)(F)C2)c1` [Example 20], the IC50 against KIF18A was 100 to 500 nM; in the data set with OVCAR-3 cells (OVCAR-3, 96 h, 4-day assay), 100 to 500 nM. In addition, in data set [1], the efflux ratio at 2 h, 5 μM is less than 10.
For the compound `Cc1cc(NC(=O)c2ccc(NS(=O)(=O)CCO)cc2N2CC[Si](C)(C)CC2)nc(N2CCC3(CC3)C2)n1` [Example 21], the IC50 was 100 to 500 nM against KIF18A and 100 to 500 nM in the data set with OVCAR-3 cells (OVCAR-3, 96 h, 4-day assay). In addition, in data set [1], the efflux ratio at 2 h, 5 μM was less than 10.
For the compound `Cc1cc(NC(=O)c2ccc(NS(=O)(=O)CCO)cc2N2CCC3(C)C(C2)C3(F)F)nc(N2CCC(F)(F)CC2)n1` (stereo not drawn) [Example 28, 2-(7,7-difluoro-6-methyl-3-azabicyclo[4.1.0]heptan-3-yl)-N-(2-(4,4-difluoropiperidin-1-yl)-6-methylpyrimidin-4-yl)-4-((2-hydroxyethyl)sulfonamido)benzamide], the IC50 on KIF18A was less than 100 nM; with OVCAR-3 cells (OVCAR-3, 96 h, 4-day assay), 100 to 500 nM. Further, the efflux ratio at 2 h, 5 μM in data set [1] was less than 10.
In the case of `Cc1cc(NC(=O)c2ccc(NS(=O)(=O)CCO)cc2N2CCC3CC3C2)nc(N2CCC(F)(F)CC2)n1` (stereo not drawn) [Example 34], the IC50 against KIF18A was less than 100 nM; with OVCAR-3 cells (OVCAR-3, 96 h, 4-day assay), 100 to 500 nM. Also, the efflux ratio at 2 h, 5 μM in data set [1] is not below 10.
For `Cc1cc(NC(=O)c2ccc(NS(=O)(=O)CCO)cc2N2CC[C@]3(C)C[C@@H]3C2)nc(N2CCC(F)(F)CC2)n1` [Example 35], in that order: less than 100 nM, 100 to 500 nM and less than 10.
For `Cc1cc(NC(=O)c2ccc(NS(=O)(=O)CCO)cc2N2CCC3(C)CC3C2)nc(N2CCC(F)(F)CC2)n1` (stereo not drawn) [Example 37], in that order: less than 100 nM, less than 100 nM and less than 10.
The corresponding values for `Cc1cc(NC(=O)c2ccc(NS(=O)(=O)CCO)cc2N2CC[C@@]3(C(F)F)C[C@H]3C2)nc(N2CCC(F)(F)CC2)c1` [Example 48, 2-((1R,6S)-6-(difluoromethyl)-3-azabicyclo[4.1.0]heptan-3-yl)-N-(6-(4,4-difluoropiperidin-1-yl)-4-methylpyridin-2-yl)-4-((2-hydroxyethyl)sulfonamido)benzamide] are less than 100 nM, less than 100 nM and not below 10.
In the case of `Cc1cc(NC(=O)c2ccc(NS(C)(=O)=O)cc2N2CC[C@]3(C(F)F)C[C@@H]3C2)nc(N2CCC(F)(F)CC2)n1` [Example 54], the IC50 was less than 100 nM on KIF18A and 100 to 500 nM in the data set on OVCAR-3 cells (OVCAR-3, 168 h, 7-day assay). Further, the efflux ratio at 2 h, 5 μM in data set [1] is less than 10.
The corresponding values for `Cc1cc(NC(=O)c2ccc(NS(=O)(=O)NCCO)cc2N2CC[C@]3(C(F)F)C[C@@H]3C2)nc(N2CCC(F)(F)CC2)n1` [Example 56] are less than 100 nM, 100 to 500 nM and not below 10.
Consider `Cc1cc(NC(=O)c2ccc(NS(=O)(=O)CCO)cc2N2CC[C@]3(C(F)F)C[C@@H]3C2)nc(N2CCC(F)(F)CC2)n1` [Example 58], for which the IC50 at KIF18A was less than 100 nM; in the data set with OVCAR-3 cells (OVCAR-3, 168 h, 7-day assay), less than 100 nM. The efflux ratio at 2 h, 5 μM in data set [1] was not below 10.

These data come from patent US20250197428A1, “INHIBITORS OF KIF18A AND USES THEREOF” (ACCENT THERAPEUTICS, INC., priority 2022, published 2025).
